Read-outs that look alike come from different tables or passages of the source.
Assays:
[1] = Pharmacokinetics after repeated oral administration of 250 μg/kg and 35 μg/kg of fluralaner in dogs after feeding; assay type: in vivo, beagle dogs; conditions: for concentration at 168 h / concentration at 192 h / concentration at 216 h / concentration at 240 h / concentration at 384 h / concentration at 528 h / concentration at 624 h / concentration at 720 h / half-life / Cmax: beagle, dog, plasma, po
Description: The first objective is to obtain the pharmacokinetic parameters after repeated oral administration of […] and 35 μg/kg of fluralaner in dogs after feeding.
The second objective is to investigate the pharmacodynamics between the fluralaner plasmatic dose and the effectiveness against ticks. • IVP: Investigational Veterinary Product, is pure Fluralaner+DMSO (250 μg/kg on Days 0 to 3 (0.25 mL/kg), then 35 μg/kg on Days 4 to 9 (0.35 mL/kg), then 600 μg/kg on Day 11) • Control product is DMSO (0.25 mL/kg on Days 0 to 3, then 0.35 mL/kg on Days 4 to 9)
On Days 0, 1, 2 and 3, all dogs assigned to group 2 received the Investigational Veterinary Product. On Days 0 to 3 all dogs in group 1 received the control product at a volume equal to the dogs in group 2. Dogs assigned to group 1 received the control product and served as Placebo controls. The quantity of Investigational Veterinary Product and control product administered was calculated according to the dog's individual body weight measured on Day −1. […]
On days of administration of pre-Investigational Veterinary Product or Control Product, dogs were fed (the same dog food) approximately half of their normal daily ration 30 minutes to 35 minutes prior to administration. Food consumed by the time of administration was calculated and recorded. The remainder of their normal daily ration was fed immediately after administration.
The PK parameters of fluralaner were calculated using a non-compartmental approach.
The following rules were applied for the calculation of the PK parameters: • All the plasma concentrations, validated by the bioanalytical laboratory, were used for the PK analysis. • The actual blood sampling times were used throughout. • Concentrations below the Limit of Quantification (LOQ) value were considered as zero from time zero (pre-dose) up to the time at which the first quantifiable concentration above the LOQ value was observed. Concentrations below the LOQ value between two quantifiable concentrations were considered as missing. Trailing concentrations below the LOQ value were not used in calculations.
Cmax the observed maximum concentration in plasma measured after dosing.
λz the terminal rate constant (λz) was estimated by log-linear regression analysis on data points visually assessed, to be on the terminal log-linear phase. For the slope of the terminal elimination phase to be accepted as reliable, the following criteria were used: • the terminal data points were apparently randomly distributed about a single straight line (on visual inspection), • a minimum of three data points, including the last measured data point and excluding Cmax, were available for the regression.
t1/2 the terminal plasma half-life (t1/2) was calculated according to the following equation: […]

[2] = Comparison of plasma concentration simulated from experimental data with literature data; set-up: species or system dogs; conditions: simulation from experimental data (Table 6)
[3] = oral 250/35/600 μg/kg regimen, dogs, n=6, read-out: fluralaner concentration levels, Mean
[4] = oral 250/35/600 μg/kg regimen, dogs, n=6, read-out: fluralaner concentration levels, Median
[5] = oral 250/35/600 μg/kg regimen, dogs, n=6, read-out: fluralaner concentration levels, Minimum
[6] = oral 250 μg/kg Days 0-3, 35 μg/kg Days 4-9, 600 μg/kg Day 11, dogs, read-out: fluralaner concentration levels, individual animal
[7] = oral 250/35/600 μg/kg regimen, dogs, n=6, read-out: fluralaner concentration levels, GeoMean
[8] = oral 250/35/600 μg/kg regimen, dogs, n=6, read-out: fluralaner concentration levels, Maximum

## Cc1cc(C2=NOC(c3cc(Cl)cc(Cl)c3)(C(F)(F)F)C2)ccc1C(=O)NCC(=O)NCC(F)(F)F (stereo not drawn) [fluralaner, Fluralaner]
[1]; [3]
  concentration at 168 h: 518 ng/mL
  concentration at 192 h: 509 ng/mL
  concentration at 216 h: 518 ng/mL
  concentration at 240 h: 483 ng/mL
  concentration at 384 h: 714 ng/mL
  concentration at 528 h: 339 ng/mL
  concentration at 624 h: 263 ng/mL
  concentration at 720 h: 265 ng/mL
[1]; [4]
  concentration at 168 h: 520 ng/mL
  concentration at 192 h: 520 ng/mL
  concentration at 216 h: 485 ng/mL
  concentration at 240 h: 422 ng/mL
  concentration at 384 h: 654 ng/mL
  concentration at 528 h: 320 ng/mL
  concentration at 624 h: 244 ng/mL
  concentration at 720 h: 280 ng/mL
[1]; [5]
  concentration at 168 h: 461 ng/mL
  concentration at 192 h: 455 ng/mL
  concentration at 216 h: 468 ng/mL
  concentration at 240 h: 368 ng/mL
  concentration at 384 h: 523 ng/mL
  concentration at 528 h: 235 ng/mL
  concentration at 624 h: 182 ng/mL
  concentration at 720 h: 187 ng/mL
[1]; [6]
  concentration at 192 h: 542 ng/mL
  concentration at 216 h: 477 ng/mL
  concentration at 240 h: 386 ng/mL
  concentration at 384 h: 561 ng/mL
  concentration at 720 h: 300 ng/mL
[1]; [7]
  concentration at 192 h: 508 ng/mL
  concentration at 216 h: 515 ng/mL
  concentration at 240 h: 469 ng/mL
  concentration at 384 h: 693 ng/mL
  concentration at 528 h: 327 ng/mL
  concentration at 624 h: 254 ng/mL
  concentration at 720 h: 262 ng/mL
[1]; [8]
  concentration at 192 h: 558 ng/mL
  concentration at 216 h: 650 ng/mL
  concentration at 240 h: 724 ng/mL
  concentration at 384 h: 1000 ng/mL
  concentration at 528 h: 517 ng/mL
  concentration at 624 h: 403 ng/mL
  concentration at 720 h: 300 ng/mL
[1]; oral 250 μg/kg Days 0-3, 35 μg/kg Days 4-9, 600 μg/kg Day 11, dogs, read-out: mean terminal half-life (converted)
  half-life: 15.5 days
[1]; oral 250/35/600 μg/kg regimen, dogs, read-out: Cmax, range
  Cmax: 561 to 1000 ng/mL
[1]; oral 250/35/600 μg/kg regimen, dogs, read-out: mean Cmax
  Cmax: 733 ng/mL
[1]; oral 250/35/600 μg/kg regimen, dogs, read-out: terminal half-life, range
  half-life: 9.47 to 20.6 days
[1]; with the 35 μg/kg per day dose application from Day 4 to Day 9
  steady state concentrations: reached
[2]
  AUCextra: 68221.98 µg·days/L
  AUClast: 483104.77 µg·days/L
  AUCtot: 551326.76 µg·days/L
  t1/2: 9.56 days
  tmax: 3 days
[2]; compared with literature oral 50.0 mg/kg values
  Cmax: 31994.2 ng/mL
